{
  "source": "patent US20230203081A1",
  "about": "“LINCOSAMIDE ANTIBIOTICS AND USES THEREOF” (President and Fellows of Harvard College, priority 2020, published 2023)",
  "assay_type_in_all_cases": "cell-based",
  "key": {"[1]": {"tested_on": "broad panel of different clinical isolates", "experiment": "microbe, parasite or virus in culture", "method_in_brief": "(§1)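 Inoculum for broth microdilution was 5×10^5 CFU/mL final, prepared from overnight 35° C blood-agar subcultures (separate handling for streptococcal and anaerobic strains); MICs read by CLSI broth microdilution or agar dilution.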"}, "[2]": {"tested_on": "E. coli ΔTolC", "experiment": "microbe, parasite or virus in culture", "conditions": "Escherichia coli, E. coli ΔTolC", "method_in_brief": "as §1"}, "[3]": {"tested_on": "E. coli armA", "experiment": "microbe, parasite or virus in culture", "conditions": "Escherichia coli, E. coli armA", "method_in_brief": "as §1"}, "[4]": {"tested_on": "S. aureus BAA 977 iErmA", "experiment": "microbe, parasite or virus in culture", "conditions": "Staphylococcus aureus", "method_in_brief": "as §1"}, "[5]": {"tested_on": "S. pneumoniae ATCC 49619", "experiment": "MIC (broth microdilution or agar dilution, CLSI)", "conditions": "Streptococcus pneumoniae, read-out: MIC", "method_in_brief": "as §1"}, "[6]": {"tested_on": "S. aureus ATCC BAA-1707 (MRSA)", "experiment": "MIC (broth microdilution or agar dilution, CLSI)", "method_in_brief": "as §1"}, "[7]": {"tested_on": "S. pyogenes ATCC 19615", "experiment": "MIC (broth microdilution or agar dilution, CLSI)", "conditions": "Streptococcus pyogenes, read-out: MIC", "method_in_brief": "as §1"}, "[8]": {"tested_on": "S. pneumoniae ATCC 6303", "experiment": "MIC (broth microdilution or agar dilution, CLSI)", "method_in_brief": "as §1"}, "[9]": {"tested_on": "E. coli ATCC 25922", "experiment": "MIC (broth microdilution or agar dilution, CLSI)", "conditions": "Escherichia coli", "method_in_brief": "as §1"}, "[10]": {"tested_on": "S. aureus MMX 3035 cErmA", "experiment": "MIC (broth microdilution or agar dilution, CLSI)", "conditions": "Staphylococcus aureus, MMX3035CERMA; S. aureus MMX 3035 cErmA; read-out: MIC", "method_in_brief": "as §1"}, "[11]": {"tested_on": "S. pneumoniae MMX 3031 cMefA", "experiment": "MIC (broth microdilution or agar dilution, CLSI)", "conditions": "Streptococcus pneumoniae, MMX3031CMEFA, read-out: MIC", "method_in_brief": "as §1"}, "[12]": {"tested_on": "E. coli LptD", "experiment": "MIC (broth microdilution or agar dilution, CLSI)", "conditions": "Escherichia coli, read-out: MIC", "method_in_brief": "as §1"}, "[13]": {"tested_on": "S. aureus ATCC 700699", "experiment": "MIC (broth microdilution or agar dilution, CLSI)", "conditions": "Staphylococcus aureus", "method_in_brief": "as §1"}, "[14]": {"tested_on": "K. pneumoniae ATCC 10031", "experiment": "MIC (broth microdilution or agar dilution, CLSI)", "conditions": "Klebsiella pneumoniae, ATCC10031, K. pneumoniae ATCC 10031; read-out: MIC", "method_in_brief": "as §1"}, "[15]": {"tested_on": "S. pyogenes MMX 946; cErmB", "experiment": "MIC (broth microdilution or agar dilution, CLSI)", "conditions": "Streptococcus pyogenes, S. pyogenes MMX 946, cErmB", "method_in_brief": "as §1"}, "[16]": {"tested_on": "S. pneumoniae MMX 3028 cErmB", "experiment": "MIC (broth microdilution or agar dilution, CLSI)", "conditions": "Streptococcus pneumoniae, MMX3028CERMB, S. pneumoniae MMX 3028 cErmB", "method_in_brief": "as §1"}, "[17]": {"tested_on": "E. faecalis MMX 847; cErmB", "experiment": "MIC (broth microdilution or agar dilution, CLSI)", "conditions": "Enterococcus faecalis, E. faecalis MMX 847, cErmB", "method_in_brief": "as §1"}},
  "note": "Where two headings read alike, the source gives them in different places.",
  "data": [
    {"smiles": "CCC[C@@H]1C[C@@H](C(=O)N[C@@H]([C@H]2O[C@H](SC)[C@H](O)[C@@H](O)[C@H]2O)[C@H](C)Cl)N(C)C1", "note": "[Clindamycin, clindamycin, reference compound]", "values": [
      {"measurement": "MIC", "setting": "[1]; Staphylococcus aureus, S. aureus HAV#211, Clinical", "value": "> 64", "unit": "µg/mL"},
      {"measurement": "MIC", "setting": "[1]; Staphylococcus aureus, S. aureus HAV#212, Clinical", "value": 0.125, "unit": "µg/mL"},
      {"measurement": "MIC", "setting": "[1]; Staphylococcus aureus, S. aureus HAV#213, Clinical", "value": 0.125, "unit": "µg/mL"},
      {"measurement": "MIC", "setting": "[1]; Staphylococcus aureus, S. aureus HAV#214, Clinical", "value": 0.06, "unit": "µg/mL"},
      {"measurement": "MIC", "setting": "[1]; Staphylococcus aureus, S. aureus HAV#215, Clinical", "value": 0.125, "unit": "µg/mL"},
      {"measurement": "MIC", "setting": "[1]; Staphylococcus aureus, S. aureus HAV#216, Clinical, cfr", "value": 128, "unit": "µg/mL"},
      {"measurement": "MIC", "setting": "[1]; Staphylococcus aureus, S. aureus HAV#217, cfr", "value": "> 128", "unit": "µg/mL"},
      {"measurement": "MIC", "setting": "[1]; Staphylococcus aureus, VISA, S. aureus HAV#203, Clinical (VISA)", "value": "> 64", "unit": "µg/mL"},
      {"measurement": "MIC", "setting": "[1]; Staphylococcus epidermidis, S. epidermidis HAV# 275 Clinical, cfr", "value": "> 128", "unit": "µg/mL"},
      {"measurement": "MIC", "setting": "[1]; Staphylococcus epidermidis, S. epidermidis HAV# 276, cfr", "value": "> 128", "unit": "µg/mL"},
      {"measurement": "MIC", "setting": "[1]; Staphylococcus epidermidis, S. epidermidis HAV#277, Line R", "value": "> 128", "unit": "µg/mL"},
      {"measurement": "MIC", "setting": "[1]; Staphylococcus epidermidis, S. epidermidis HAV#278 Line R", "value": "> 128", "unit": "µg/mL"},
      {"measurement": "MIC", "setting": "[1]; Staphylococcus epidermidis, S. epidermidis HAV#279, Line R", "value": 0.25, "unit": "µg/mL"},
      {"measurement": "MIC", "setting": "[1]; Staphylococcus haemolyticus, S. haemolyticus 5052, Line R & Methicillin R", "value": 2, "unit": "µg/mL"},
      {"measurement": "MIC", "setting": "[1]; Staphylococcus haemolyticus, S. haemolyticus HAV#252, Line R & Methicillin R", "value": 2, "unit": "µg/mL"},
      {"measurement": "MIC", "setting": "[1]; Streptococcus pneumoniae, ATCC700673, S. pneumoniae HAV#352, ATCC 700673, MDR", "value": "> 64", "unit": "µg/mL"},
      {"measurement": "MIC", "setting": "[1]; Streptococcus pneumoniae, ATCCBAA255, S. pneumoniae HAV#354, ATCC-BAA-255", "value": 0.25, "unit": "µg/mL"},
      {"measurement": "MIC", "setting": "[1]; Streptococcus pneumoniae, ATCCBAA334, S. pneumoniae HAV#353, ATCC-BAA-334", "value": 0.25, "unit": "µg/mL"},
      {"measurement": "MIC", "setting": "[1]; Streptococcus pneumoniae, S. pneumoniae HAV#356, Clinical", "value": "> 64", "unit": "µg/mL"},
      {"measurement": "MIC", "setting": "[1]; Streptococcus pneumoniae, S. pneumoniae HAV#358, Clinical", "value": 0.25, "unit": "µg/mL"},
      {"measurement": "MIC", "setting": "[2]", "value": 4, "unit": "µg/mL"},
      {"measurement": "MIC", "setting": "[3]", "value": "> 128", "unit": "µg/mL"},
      {"measurement": "MIC", "setting": "[4]; BAA977", "value": 0.12, "unit": "µg/mL"},
      {"measurement": "MIC", "setting": "[4]; BAA-977 / MRSA", "value": 0.125, "unit": "µg/mL"},
      {"measurement": "MIC", "setting": "[4]; BAA-977 / MRSA, 24 h", "value": "> 128", "unit": "µg/mL"},
      {"measurement": "MIC", "setting": "[5]; ATCC49619, S. pneumoniae ATCC 49619", "value": "≤ 0.06", "unit": "µg/mL"},
      {"measurement": "MIC", "setting": "[5]; ATCC49619, S. pneumoniae HAV#003, ATCC 49619", "value": 0.06, "unit": "µg/mL"},
      {"measurement": "MIC", "setting": "[6]; S. aureus HAV#016, ATCC BAA-1707, MRSA", "value": 0.125, "unit": "µg/mL"},
      {"measurement": "MIC", "setting": "[6]; Staphylococcus aureus", "value": 0.125, "unit": "µg/mL"},
      {"measurement": "MIC", "setting": "[7]; ATCC19615, S. pyogenes ATCC 19615", "value": "≤ 0.06", "unit": "µg/mL"},
      {"measurement": "MIC", "setting": "[7]; ATCC19615, S. pyogenes HAV#004, ATCC 19615", "value": 0.06, "unit": "µg/mL"},
      {"measurement": "MIC", "setting": "[8]; S. pneumoniae HAV#351, ATCC 6303", "value": 0.06, "unit": "µg/mL"},
      {"measurement": "MIC", "setting": "[8]; Streptococcus pneumoniae, ATCC6303, S. pneumoniae ATCC 6303, read-out: MIC", "value": 0.06, "unit": "µg/mL"},
      {"measurement": "MIC", "setting": "[9]; ATCC25922, E. coli ATCC 25922", "value": "> 128", "unit": "µg/mL"},
      {"measurement": "MIC", "setting": "[9]; ATCC25922, E. coli ATCC 25922, read-out: MIC", "value": "> 64", "unit": "µg/mL"},
      {"measurement": "MIC", "setting": "[9]; ATCC25922, E. coli HAV#006, ATCC 25922", "value": "> 128", "unit": "µg/mL"},
      {"measurement": "MIC", "setting": "[10]", "value": "> 64", "unit": "µg/mL"},
      {"measurement": "MIC", "setting": "[11]; S. pneumoniae HAV#034, MMX 3031, cMefA", "value": "< 0.06", "unit": "µg/mL"},
      {"measurement": "MIC", "setting": "[11]; S. pneumoniae MMX 3031 cMefA", "value": 0.06, "unit": "µg/mL"},
      {"measurement": "MIC", "setting": "[12]; E. coli HAV#040, LptD", "value": 4, "unit": "µg/mL"},
      {"measurement": "MIC", "setting": "[12]; E. coli LptD", "value": 2, "unit": "µg/mL"},
      {"measurement": "MIC", "setting": "[13]; ATCC700699", "value": "> 128", "unit": "µg/mL"},
      {"measurement": "MIC", "setting": "[13]; ATCC 700699 / VISA", "value": "> 128", "unit": "µg/mL"},
      {"measurement": "MIC", "setting": "[14]", "value": 16, "unit": "µg/mL"},
      {"measurement": "MIC", "setting": "[15]", "value": "> 128", "unit": "µg/mL"},
      {"measurement": "MIC", "setting": "[15]; read-out: MIC", "value": "> 64", "unit": "µg/mL"},
      {"measurement": "MIC", "setting": "[16]", "value": "> 128", "unit": "µg/mL"},
      {"measurement": "MIC", "setting": "[16]; read-out: MIC", "value": "> 64", "unit": "µg/mL"},
      {"measurement": "MIC", "setting": "[17]", "value": "> 128", "unit": "µg/mL"},
      {"measurement": "MIC", "setting": "[17]; read-out: MIC", "value": "> 64", "unit": "µg/mL"}
    ]}
  ]
}
